Legend:
[1] = biological target: T1, mouse TLR7 (Mus musculus, UniProt P58681); assay: Short-term in vivo (STIV) assay: oral dosing, R848 s.c., plasma IL-6; design: female BALB/c mice (Jackson Labs, Bar Harbor, Me.) were dosed by oral gavage; tissue Jackson Labs; host or cells: living female BALB/c mice; plasma IL-6 after s.c. R848
T1 sequence (P58681 27-1050): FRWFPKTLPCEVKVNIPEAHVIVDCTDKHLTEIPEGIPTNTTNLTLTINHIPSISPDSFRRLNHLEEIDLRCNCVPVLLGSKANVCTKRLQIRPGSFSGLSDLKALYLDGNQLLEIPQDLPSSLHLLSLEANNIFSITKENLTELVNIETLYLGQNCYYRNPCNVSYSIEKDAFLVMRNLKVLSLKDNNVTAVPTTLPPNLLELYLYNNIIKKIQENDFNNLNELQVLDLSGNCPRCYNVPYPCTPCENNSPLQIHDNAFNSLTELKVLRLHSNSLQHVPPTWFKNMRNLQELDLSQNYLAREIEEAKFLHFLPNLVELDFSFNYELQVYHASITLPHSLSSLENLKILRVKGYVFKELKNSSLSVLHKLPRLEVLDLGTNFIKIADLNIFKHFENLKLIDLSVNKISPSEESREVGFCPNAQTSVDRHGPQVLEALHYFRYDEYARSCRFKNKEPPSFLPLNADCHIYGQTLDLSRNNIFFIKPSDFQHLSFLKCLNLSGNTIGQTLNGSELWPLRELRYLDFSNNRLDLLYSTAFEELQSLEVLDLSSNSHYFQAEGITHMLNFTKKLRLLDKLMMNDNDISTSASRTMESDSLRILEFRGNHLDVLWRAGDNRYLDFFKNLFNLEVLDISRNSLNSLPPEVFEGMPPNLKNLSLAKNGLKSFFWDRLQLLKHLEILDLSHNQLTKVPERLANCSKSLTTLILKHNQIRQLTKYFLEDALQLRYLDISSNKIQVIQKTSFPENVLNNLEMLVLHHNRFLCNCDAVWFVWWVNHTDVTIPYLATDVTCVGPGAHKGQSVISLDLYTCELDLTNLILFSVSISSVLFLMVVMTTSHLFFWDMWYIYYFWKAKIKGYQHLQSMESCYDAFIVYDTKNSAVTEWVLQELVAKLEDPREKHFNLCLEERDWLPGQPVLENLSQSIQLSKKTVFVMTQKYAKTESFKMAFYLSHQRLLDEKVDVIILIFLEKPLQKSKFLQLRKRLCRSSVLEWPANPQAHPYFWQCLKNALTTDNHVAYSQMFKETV
Method in brief: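 Female BALB/c mice (6–8 weeks) dosed orally with compound in 0.5% aqueous methyl-cellulose at 33, 100 or 300 mg/kg; at various times afterwards given 15 ug R848 s.c. to stimulate TLR7. Plasma IL-6 measured by ELISA to gauge potency and duration of action.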

[2] = tested on: Mouse Splenocytes; assay: Mouse spleen cell-based assay (R848, IL-6 ELISA); details: Mus musculus, Splenocyte, BALB/c spleen cells, 370 nM R848
Description: Mouse Spleen cell-based assay. Spleens were harvested from female BALB/c mice (Jackson Labs, Bar Harbor, Me.) euthanized by CO2. A single cell suspension was obtained by passing spleens through a 40 μm an nylon cell strainer. Cells were washed twice with 50 ml PBS (Mediatech, Inc., Manassas, Va.) and red blood cells were lysed in 5 ml RBC Lysis buffer (eBioscience, Inc., San Diego, Calif.) for 5 minutes at room temperature. Cells were washed twice more in PBS and finally resuspended in supplemented RPMI-1640 at 2.5×10^6 cells/ml. Cells were plated at 100 μl/well (2.5×10^5 cells/well) in 96-well tissue culture treated plates (Falcon). Serial dilutions of compounds solubilized in 100% DMSO were added in triplicate to cells to yield a final concentration of 0.1% DMSO. Cells were incubated with compound for 30 minutes at 37° C., 5% CO2 before adding 100 μl/well of 740 nM R848 (Resiquimod; GLSynthesis, Worcester, Mass.) in complete media for a final concentration of 370 nM R848. Cells were incubated for 20 hours at 37° C., 5% CO2. Culture supernatants were collected, and levels of IL-6 were assessed by standard ELISA procedure according to the manufacturer's recommended protocol (BD Biosciences, Inc., San Diego, Calif.).

| SMILES | % Suppression vs. Vehicle ([1]; 3 h, 33 mg/kg) [%] | % Suppression vs. Vehicle ([1]; 3 h, 100 mg/kg) [%] | % Suppression vs. Vehicle ([1]; 6 h, 33 mg/kg) [%] | % Suppression vs. Vehicle ([1]; 6 h, 100 mg/kg) [%] | % Suppression vs. Vehicle ([1]; 19 h, 1.22 mg/kg) [%] | % Suppression vs. Vehicle ([1]; 19 h, 3.67 mg/kg) [%] | % Suppression vs. Vehicle ([1]; 19 h, 11 mg/kg) [%] | % Suppression vs. Vehicle ([1]; 19 h, 33 mg/kg) [%] | % Suppression vs. Vehicle ([1]; 19 h, 100 mg/kg) [%] | IC50 [2] [nM] | % Suppression vs. Vehicle ([1]; 13 h, 33 mg/kg) [%] | % Suppression vs. Vehicle ([1]; 13 h, 100 mg/kg) [%] | % Suppression vs. Vehicle ([1]; 13 h, 300 mg/kg) [%] | % Suppression vs. Vehicle ([1]; 24 h, 33 mg/kg) [%] | % Suppression vs. Vehicle ([1]; 24 h, 100 mg/kg) [%] | % Suppression vs. Vehicle ([1]; 24 h, 300 mg/kg) [%] | % Suppression vs. Vehicle ([1]; 6 h, 300 mg/kg) [%] |
| --- | --- | --- | --- | --- | --- | --- | --- | --- | --- | --- | --- | --- | --- | --- | --- | --- | --- |
| CC1CN(c2ccc(C#N)c3ncccc23)CC(CN2CCN(C)CC2C)O1 (stereo not drawn) [ER-889556] | 100 | 100 | 100 | 100 | 44 | 89 | 29 | 47 | 98 | 432 |  |  |  |  |  |  |  |
| CC1CN(c2ccc(C#N)c3ncccc23)CC(CN2CCC(NC(=O)C(C)C)CC2)O1 (stereo not drawn) [ER-889745] |  | 93 | 94 | 84 |  |  |  | 0 | 52 | 90 | 0 | 99 | 95 | 0 | 64 | 100 |  |
| CC[C@H]1CN(C[C@H]2CN(c3ccc(C#N)c4ncccc34)C[C@@H](C)O2)CCN1 [ER-890963] | 90 |  | 98 | 99 |  |  |  | 45 |  | 250 | 31 | 80 | 100 |  | 50 | 100 | 100 |

Source: patent publication USRE47193E1, “Selectively substituted quinoline compounds” (EISAI R&D MANAGEMENT CO., LTD., priority 2013, dated 2019)
